Measurements: ChEMBL document CHEMBL5042533, “Structural Optimization and Structure-Activity Relationship Studies of 6,6-Dimethyl-4-(phenylamino)-6H-pyrimido[5,4-b][1,4]oxazin-7(8H)-one Derivatives as A New Class of Potent Inhibitors of Pan-Trk and Their Drug-Resistant Mutants” (J Med Chem, 2022)
Activity calls are given as the source filed them. No cut-off for these calls is given here.

Experiments:
BaF3 [1] = test: cells; settings: Mus musculus, BaF3, 72 h
Description: Cytotoxicity against mouse BaF3 cells expressing TEL fused TrkC G696C assessed as inhibition of cell growth incubated for 3 days by CCK-8 assay

[2] = MRT (0 to t) in Sprague-Dawley rat at 10 mg/kg, po measured up to 24 hrs by HPLC method; format: ADME, organism-based; settings: in vivo
[3] = Cmax in Sprague-Dawley rat at 5 mg/kg, iv measured up to 24 hrs by HPLC method; format: ADME, organism-based; parameters: route intravenous, dose 5 mg/kg, time <=24; settings: in vivo
[4] = Binding affinity to TrkA G667S mutant (unknown origin) assessed as inhibition constant by radiometric assay; parameters: species or system Homo sapiens
[5] = Toxicity in NOD-SCID mouse assessed as histological changes in heart at 5 to 20 mg/kg, iv measured after 10 days by H and E staining based microscopic analysis; format: organism-based; settings: in vivo, 240 h, dose 5-20 mg/kg, time 10 day
[6] = Tmax in Sprague-Dawley rat at 5 mg/kg, iv measured up to 24 hrs by HPLC method; format: ADME, organism-based; settings: in vivo
[7] = Toxicity in NOD-SCID mouse assessed as histological changes in lung at 5 to 20 mg/kg, iv measured after 10 days by H and E staining based microscopic analysis; format: organism-based; settings: in vivo, 240 h, dose 5-20 mg/kg, time 10 day
BaF3 [8] = test: cells; settings: Mus musculus
Description: Cytotoxicity against mouse BaF3 cells harboring TEL fused TrkC G613R mutant assessed as inhibition of cell growth by MTT assay

BaF3 [9] = test: Downregulation of TrkA protein expression in mouse BaF3 cells expressing TEL fused TrkA incubated for 6 hrs by Western blot analysis; format: functional, cell-based
[10] = target: Tyrosine-protein kinase Fes/Fps (Homo sapiens, UniProt P07332); test: Inhibition of human FES in presence of ATP by radiometric assay
Tyrosine-protein kinase Fes/Fps, sequence (P07332 whole entry): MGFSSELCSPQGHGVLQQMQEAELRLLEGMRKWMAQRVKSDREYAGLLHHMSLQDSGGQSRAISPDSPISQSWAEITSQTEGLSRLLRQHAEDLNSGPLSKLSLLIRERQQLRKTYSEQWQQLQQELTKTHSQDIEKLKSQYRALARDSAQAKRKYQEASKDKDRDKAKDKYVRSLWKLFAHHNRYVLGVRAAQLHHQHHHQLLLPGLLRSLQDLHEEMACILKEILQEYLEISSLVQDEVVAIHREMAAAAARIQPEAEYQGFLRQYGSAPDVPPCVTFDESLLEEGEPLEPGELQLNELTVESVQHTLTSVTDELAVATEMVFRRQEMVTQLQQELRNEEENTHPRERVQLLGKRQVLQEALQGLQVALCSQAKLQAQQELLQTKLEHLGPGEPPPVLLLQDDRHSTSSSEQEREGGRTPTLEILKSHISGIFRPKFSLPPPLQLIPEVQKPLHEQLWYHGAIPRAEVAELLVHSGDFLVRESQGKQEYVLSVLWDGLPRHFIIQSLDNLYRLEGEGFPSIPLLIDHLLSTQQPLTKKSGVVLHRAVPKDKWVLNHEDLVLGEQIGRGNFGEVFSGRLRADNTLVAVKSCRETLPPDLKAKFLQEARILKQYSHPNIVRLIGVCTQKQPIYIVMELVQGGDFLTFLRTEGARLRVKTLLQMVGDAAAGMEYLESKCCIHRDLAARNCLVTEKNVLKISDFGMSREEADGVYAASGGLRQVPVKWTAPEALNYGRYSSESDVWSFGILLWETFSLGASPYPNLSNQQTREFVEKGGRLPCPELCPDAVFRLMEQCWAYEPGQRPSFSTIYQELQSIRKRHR

[11] = target: T1, 1-phosphatidylinositol 4,5-bisphosphate phosphodiesterase gamma-1 (Homo sapiens) (UniProt P19174); test: Inhibition of PLCgamma1 phosphorylation in human KM12-luc cells incubated for 6 hrs by Western blot analysis; format: cell-based; settings: dose 3-300 nM
T1 sequence (whole entry): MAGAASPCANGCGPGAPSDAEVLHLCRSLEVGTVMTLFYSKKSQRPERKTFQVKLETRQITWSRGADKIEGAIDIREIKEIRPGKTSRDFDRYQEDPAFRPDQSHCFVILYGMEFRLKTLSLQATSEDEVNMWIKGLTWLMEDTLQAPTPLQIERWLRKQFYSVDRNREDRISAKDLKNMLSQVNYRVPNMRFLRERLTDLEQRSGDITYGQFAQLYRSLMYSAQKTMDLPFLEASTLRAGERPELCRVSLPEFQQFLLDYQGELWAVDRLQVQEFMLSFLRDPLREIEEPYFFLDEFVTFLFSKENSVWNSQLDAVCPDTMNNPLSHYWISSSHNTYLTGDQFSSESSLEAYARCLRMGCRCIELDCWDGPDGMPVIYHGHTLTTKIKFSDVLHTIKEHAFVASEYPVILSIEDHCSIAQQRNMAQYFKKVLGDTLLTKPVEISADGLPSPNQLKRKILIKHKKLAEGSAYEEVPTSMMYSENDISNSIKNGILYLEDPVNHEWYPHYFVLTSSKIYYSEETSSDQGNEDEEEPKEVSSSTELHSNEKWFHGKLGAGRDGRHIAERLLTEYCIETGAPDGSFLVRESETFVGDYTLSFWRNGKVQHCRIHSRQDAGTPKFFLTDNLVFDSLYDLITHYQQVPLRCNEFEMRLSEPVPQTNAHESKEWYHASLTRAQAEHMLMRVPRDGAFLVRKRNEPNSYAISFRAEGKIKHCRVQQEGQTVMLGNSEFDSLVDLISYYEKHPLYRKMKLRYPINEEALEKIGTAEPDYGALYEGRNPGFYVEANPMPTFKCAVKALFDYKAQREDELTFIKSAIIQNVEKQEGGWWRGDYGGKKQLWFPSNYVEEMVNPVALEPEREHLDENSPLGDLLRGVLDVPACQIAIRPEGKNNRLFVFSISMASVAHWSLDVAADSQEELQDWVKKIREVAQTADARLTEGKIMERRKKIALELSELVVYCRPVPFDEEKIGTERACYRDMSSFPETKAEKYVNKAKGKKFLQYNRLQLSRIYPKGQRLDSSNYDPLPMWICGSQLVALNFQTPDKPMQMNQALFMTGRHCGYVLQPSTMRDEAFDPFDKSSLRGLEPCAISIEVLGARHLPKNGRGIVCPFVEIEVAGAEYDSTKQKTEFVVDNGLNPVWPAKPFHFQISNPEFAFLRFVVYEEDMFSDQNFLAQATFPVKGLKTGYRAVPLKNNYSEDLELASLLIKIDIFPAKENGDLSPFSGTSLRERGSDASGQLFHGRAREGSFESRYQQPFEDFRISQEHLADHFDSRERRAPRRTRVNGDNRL

BaF3 [12] = test: Inhibition of ERK phosphorylation in mouse BaF3 cells expressing TEL fused TrkC G623R mutant incubated for 6 hrs by Western blot analysis; format: cell-based; settings: dose 3-300 nM
BaF3 [13] = test: cells; settings: Mus musculus, BaF3, 72 h; remark: listed apart in the source
Description: Cytotoxicity against mouse BaF3 cells expressing LMNA fused TrkA G667S mutant assessed as inhibition of cell growth incubated for 3 days by CCK-8 assay

BaF3 [14] = test: Inhibition of PLCgamma1 phosphorylation in mouse BaF3 cells expressing TEL fused TrkC G623R mutant incubated for 6 hrs by Western blot analysis; format: cell-based; settings: dose 3-300 nM
[15] = MRT (0 to t) in Sprague-Dawley rat at 5 mg/kg, iv measured up to 24 hrs by HPLC method; format: ADME, organism-based; settings: in vivo
[16] = Half life in Sprague-Dawley rat at 5 mg/kg, iv measured up to 24 hrs by HPLC method; format: ADME, organism-based; settings: in vivo
[17] = target: Tyrosine-protein kinase FRK (Homo sapiens, UniProt P42685); test: Inhibition of human PTK5 in presence of ATP by radiometric assay
Tyrosine-protein kinase FRK, sequence (P42685 whole entry): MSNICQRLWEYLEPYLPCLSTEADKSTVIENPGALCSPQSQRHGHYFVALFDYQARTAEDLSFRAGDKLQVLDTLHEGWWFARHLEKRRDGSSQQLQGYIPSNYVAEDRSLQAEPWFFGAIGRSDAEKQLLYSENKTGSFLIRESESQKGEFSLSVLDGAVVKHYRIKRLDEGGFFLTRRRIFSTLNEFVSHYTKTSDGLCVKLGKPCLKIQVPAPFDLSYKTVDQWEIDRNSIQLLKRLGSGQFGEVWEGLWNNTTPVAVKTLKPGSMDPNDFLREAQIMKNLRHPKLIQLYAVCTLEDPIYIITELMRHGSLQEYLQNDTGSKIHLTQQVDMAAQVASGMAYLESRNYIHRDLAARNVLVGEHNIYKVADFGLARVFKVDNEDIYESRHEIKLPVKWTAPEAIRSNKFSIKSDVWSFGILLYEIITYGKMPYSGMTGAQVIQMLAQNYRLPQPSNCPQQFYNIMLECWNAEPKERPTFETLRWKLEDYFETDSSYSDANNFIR

BaF3 [18] = test: cells; settings: Mus musculus, BaF3, 72 h; remark: listed apart in the source
Description: Cytotoxicity against mouse BaF3 cells expressing TEL fused TrkC G623R assessed as inhibition of cell growth incubated for 3 days by CCK-8 assay

[19] = Oral bioavailability in Sprague-Dawley rat at 10 mg/kg measured up to 24 hrs by HPLC method; format: ADME, organism-based; settings: in vivo
[20] = Toxicity in NOD-SCID mouse allografted with larotrectinib-resistant mouse BaF3 cells expressing TEL fused TrkC G623R mutant assessed as body weight loss at 5 to 20 mg/kg, iv measured every 2 or 3 days for 10 days; format: organism-based; settings: in vivo, 240 h, dose 5-20 mg/kg, time 10 day
BaF3 [21] = test: Downregulation of TrkA protein expression in mouse BaF3 cells expressing CD74 fused TrkA incubated for 6 hrs by Western blot analysis; format: functional, cell-based
BaF3 [22] = test: Downregulation of TrkC protein expression in mouse BaF3 cells expressing TEL fused TrkC G623R mutant incubated for 6 hrs by Western blot analysis; format: functional, cell-based
[23] = Toxicity in NOD-SCID mouse assessed as histological changes in kidney at 5 to 20 mg/kg, iv measured after 10 days by H and E staining based microscopic analysis; format: organism-based; settings: in vivo, 240 h, dose 5-20 mg/kg, time 10 day
[24] = target: Epithelial discoidin domain-containing receptor 1 (Homo sapiens, UniProt Q08345); test: Inhibition of human DDR1 in presence of ATP by radiometric assay
Epithelial discoidin domain-containing receptor 1, sequence (Q08345 whole entry, the tested form may be a part): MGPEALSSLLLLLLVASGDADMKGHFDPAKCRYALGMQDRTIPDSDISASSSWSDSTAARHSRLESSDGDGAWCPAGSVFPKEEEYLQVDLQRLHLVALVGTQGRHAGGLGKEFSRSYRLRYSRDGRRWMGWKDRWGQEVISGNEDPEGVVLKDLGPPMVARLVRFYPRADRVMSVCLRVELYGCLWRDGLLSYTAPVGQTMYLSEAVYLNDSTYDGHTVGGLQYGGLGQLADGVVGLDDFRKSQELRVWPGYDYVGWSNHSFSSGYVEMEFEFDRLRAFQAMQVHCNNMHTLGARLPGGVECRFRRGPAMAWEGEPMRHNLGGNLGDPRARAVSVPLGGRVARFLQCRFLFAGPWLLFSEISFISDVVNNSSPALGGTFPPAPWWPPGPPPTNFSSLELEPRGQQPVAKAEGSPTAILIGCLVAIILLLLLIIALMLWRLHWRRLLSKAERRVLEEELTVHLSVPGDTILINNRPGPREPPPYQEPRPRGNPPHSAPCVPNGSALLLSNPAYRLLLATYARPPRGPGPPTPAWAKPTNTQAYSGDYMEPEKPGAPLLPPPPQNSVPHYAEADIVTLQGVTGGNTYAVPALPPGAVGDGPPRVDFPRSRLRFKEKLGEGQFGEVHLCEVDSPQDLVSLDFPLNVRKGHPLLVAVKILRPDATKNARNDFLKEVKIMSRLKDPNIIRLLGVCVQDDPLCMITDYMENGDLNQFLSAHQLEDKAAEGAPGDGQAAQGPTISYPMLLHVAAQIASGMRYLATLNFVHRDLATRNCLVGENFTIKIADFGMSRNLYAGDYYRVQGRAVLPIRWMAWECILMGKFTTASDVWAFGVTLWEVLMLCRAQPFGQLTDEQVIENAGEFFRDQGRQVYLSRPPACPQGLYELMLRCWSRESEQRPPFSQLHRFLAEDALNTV

BaF3 [25] = test: Cytotoxicity against mouse BaF3 cells expressing LMNA fused TrkA F589L mutant assessed as inhibition of cell growth incubated for 3 days by CCK-8 assay; format: functional, cell-based; settings: BaF3, 72 h

For `Cc1cc(NC(=O)Nc2cc(C(C)(C)C)nn2-c2ccc(Cl)cc2)ccc1Nc1ncnc2c1OC(C)(C)C(=O)N2`, the IC50 (BaF3 [1]) was 2 nM, the MRT last at 24 h [2] was 2.94 h and the Cmax [3] was 21300 ng/mL. The Ki [4] was 2 nM, the Activity [5] was “Non-Toxic” and the Tmax [6] was 4.8 min. For the same molecule, the Activity [7] was “Non-Toxic”, the IC50 (BaF3 [8]) was 15 nM and the Activity (BaF3 [9]) was “Active”. The IC50 [10] was 269 nM, the inhibition [11] was “Active” and the inhibition (BaF3 [12]) was “Active”. The IC50 (BaF3 [13]) was 6 nM, the inhibition (BaF3 [14]) was “Active” and the MRT last at 24 h [15] was 1.07 h. For the same molecule, the half-life [16] was 1.5 h, the IC50 [17] was 32 nM and the IC50 (BaF3 [18]) was 15 nM. For the same molecule, the bioavailability [19] was 19.8%, the Activity [20] was “Non-Toxic” and the Activity (BaF3 [21]) was “inactive”. The Activity (BaF3 [22]) was “Active”, the Activity [23] was “Non-Toxic” and the IC50 [24] was 126 nM. For the same molecule, the IC50 (BaF3 [25]) was 7 nM.
